Results published in patent US9182397B2, “Immunoassay for detecting antibiotics” (DSM IP ASSETS B.V., priority 2011, dated 2015).

Key:
[1] = system: Penicillin binding protein purified from Bacillus stearothermophilus; assay: Lateral flow test strip, penicillin G in spiked milk (Example 3); design: key to Intensity of the detection zone: 0: no intensity; 1: low intensity; 2: medium intensity; 3: high intensity
Description: (§1) A nitrocellulose HF90 membrane (Millipore; length 25 mm) was used as a detection region. The membrane was glued to a polystyrene laminated card (thickness 0.254 mm) 8 mm from the proximal end of the card. Next, the detection zone and control zone were applied onto the nitrocellulose membrane. The detection zone was applied by dispensing 1 mg/ml of a 7ACA-spacer-BSA conjugate in 20 mM KPO4-buffer (pH 7.5) with a Biodot Dispense workstation XYZ 3050 with frontline at 0.2 μl/cm. The control zone was applied by dispensing 0.15 mg/ml of an anti-IgY antibody in 20 mM KPO4-buffer (pH 7.5) comprising 0.675 mg/ml BSA, 5% w/v saccharose and 20 mM NaCl with a Biodot Dispense workstation XYZ 3050 with frontline at 0.8 μl/cm. After drying of the zones, the nitrocellulose membrane was blocked by spraying a solution comprising 10 mM Tris buffer (pH 8) comprising 2% w/v BSA and 0.05% w/v Tween-20 using a Biodot Dispense workstation XYZ 3050 with airjet 3×. The solution was sprayed onto the membrane at a distance of 2 mm below the detection zone. Thereafter, the sample receiving region (VF2 membrane from Millipore; length 1 cm) was glued at the proximal end of the card overlapping 2 mm with the nitrocellulose membrane. The absorbing region (10038 membrane from Millipore; length 20 mm) was glued at the distal end of the card with an overlap of 2 mm on the nitrocellulose membrane. The obtained cards were dried at 37° C. in a dry atmosphere (0% relative humidity). The card was cut in strips of 5.2 mm width and kept at a dry atmosphere (0% relative humidity).
(§2) Streptavidin-coated gold particles were synthesized by reacting colloidal gold (diameter 40 nm; 1 OD/ml) with 10 μg/ml streptavidin. Next, the obtained solution was concentrated by tangential flow filtration, washed and stored in a Tris buffer (pH 8) including NaCN. Penicillin binding protein purified from Bacillus stearothermophilus was biotinylated (1:4) with D-biotinyl-epsilon-aminocaproic acid-N-hydroxysuccinimide ester. Next, the penicillin binding protein-gold conjugate was synthesized by reacting 1.5 μg biotinylated penicillin binding protein with 1 OD streptavidin-coated gold particles for 1 hour, followed by centrifugation at 10,000×g for 5 minutes and resuspension of the obtained pellet in 45 mM bicarbonate buffer comprising 0.1% w/v Triton X-100 (pH 9.6).
IgY-coated gold particles were synthesized by reacting colloidal gold (diameter 40 nm; 1 OD/ml with 10 μg/ml IgY. Next, the obtained solution was centrifuged at 7,500×g for 10 minutes and the obtained pellet was resuspended in a Tris buffer (pH 8), washed by another round of centrifugation and resuspension of the obtained pellet in a Tris buffer (pH 8) and stored in a Tris-buffer (pH 8) including NaCN.
(§3) Thereafter, 140-200 mOD of the penicillin binding protein-gold conjugate and 5-20 mOD of the IgY-gold conjugate was solubilized in 100 μl buffer (80 mM Tris buffer comprising 0.01% w/v Triton-X-100, 0.4% w/v BSA, 5% v/v glycerin and 2% w/v saccharose (pH 8.5)) and 0.75 μl of the solution was dispensed per tube and dried for 12 hours at 40° C. The obtained tubes were sealed.
(§4) 150 μl of spiked milk was added per tube containing the dried conjugates. The concentration of penicillin G in the added milk varied from 0 to 4 ng/g (tube 1: 0 ng/g; […]; tube 2: 2 ng/g; tube 3: 3 ng/g; and tube 4: 4 ng/g). The obtained liquid composition was incubated for 2 minutes at 64° C. in an incubator. A test device was put into the tube and incubated for 3 minutes at 64° C. in the incubator. The result was read by eye.

[2] = system: Penicillin binding protein purified from Bacillus stearothermophilus; assay: Detection of Penicillin G after storage of the test device at −20° C. or 30° C. (Example 26); design: key: 0: no intensity; 1: low intensity; 2: medium intensity; 3: high intensity
Description: as §1, §2, §3, §4
The test devices were produced as described above in Examples 1 and 2 and stored at different temperatures (−20° C. and 30° C.). At different time periods after production, the test device was used to detect penicillin G. The test was done essentially as described in Example 3.

[3] = system: Penicillin binding protein purified from Bacillus stearothermophilus; assay: Detection of Penicillin G, test done at different temperatures (Example 29); design: key: 0: no intensity; 1: low intensity; 2: medium intensity; 3: high intensity
Description: as §1, §2, §3, §4
The test was done essentially as described in Example 3, with the proviso that the test was done at different temperatures (4° C., 20° C. or 31.5° C.).

## CC1(C)S[C@@H]2[C@H](NC(=O)Cc3ccccc3)C(=O)N2[C@H]1C(=O)O [Penicillin G]
[1]; Penicillin G 1 ng/g in milk
  Intensity of the detection zone compared with the intensity of the control zone: clearly higher
[1]; Penicillin G 1 ng/g in spiked milk, read by eye
  Intensity of the detection zone: 3
[1]; Penicillin G 2 ng/g in milk
  Signal intensity of the detection zone compared with the signal intensity of the control zone: similar
[1]; Penicillin G 2 ng/g in spiked milk, read by eye
  Intensity of the detection zone: 2
[1]; Penicillin G 3 ng/g in milk
  Signal intensity of the detection zone compared with the signal intensity of the control zone: similar
[1]; Penicillin G 3 ng/g in spiked milk, read by eye
  Intensity of the detection zone: 2
[1]; Penicillin G 4 ng/g in milk
  Intensity of the detection zone compared with the intensity of the control zone: significantly lower
[1]; Penicillin G 4 ng/g in spiked milk, read by eye
  Intensity of the detection zone: 1
[1]; spiked milk, read by eye
  Concentration in the milk at which the signal of the detection zone clearly was less intense: ≥ 2 ng/g
[2]; Pen G 3 ppb, test device stored 0 days at 30° C.
  Intensity of detection zone: 2
[2]; Pen G 3 ppb, test device stored 0 days at −20° C.
  Intensity of detection zone: 2
[2]; Pen G 3 ppb, test device stored 3 days at 30° C.
  Intensity of detection zone: 2
[2]; Pen G 3 ppb, test device stored 3 days at −20° C.
  Intensity of detection zone: 2
[2]; Pen G 3 ppb, test device stored 7 days at 30° C.
  Intensity of detection zone: 2
[2]; Pen G 3 ppb, test device stored 7 days at −20° C.
  Intensity of detection zone: 2
[2]; Pen G 3 ppb, test device stored 28 days at 30° C.
  Intensity of detection zone: 1
[2]; Pen G 3 ppb, test device stored 28 days at −20° C.
  Intensity of detection zone: 2
[2]; Pen G 4 ppb, test device stored 0 days at 30° C.
  Intensity of detection zone: 1
[2]; Pen G 4 ppb, test device stored 0 days at −20° C.
  Intensity of detection zone: 1
[2]; Pen G 4 ppb, test device stored 3 days at 30° C.
  Intensity of detection zone: 1
[2]; Pen G 4 ppb, test device stored 3 days at −20° C.
  Intensity of detection zone: 1
[2]; Pen G 4 ppb, test device stored 7 days at 30° C.
  Intensity of detection zone: 1
[2]; Pen G 4 ppb, test device stored 7 days at −20° C.
  Intensity of detection zone: 1
[2]; Pen G 4 ppb, test device stored 28 days at 30° C.
  Intensity of detection zone: 0
[2]; Pen G 4 ppb, test device stored 28 days at −20° C.
  Intensity of detection zone: 1
[3]; Pen G 3 ppb, test done at temperature 4 ° C.
  Intensity of detection zone: 2
[3]; Pen G 3 ppb, test done at temperature 20 ° C.
  Intensity of detection zone: 2
[3]; Pen G 3 ppb, test done at temperature 31.5 ° C.
  Intensity of detection zone: 2
[3]; Pen G 4 ppb, test done at temperature 4 ° C.
  Intensity of detection zone: 1
[3]; Pen G 4 ppb, test done at temperature 20 ° C.
  Intensity of detection zone: 1
[3]; Pen G 4 ppb, test done at temperature 31.5 ° C.
  Intensity of detection zone: 1
